Key:
IGF-1R = target: T1, IGF-1R (Homo sapiens, UniProt P08069); assay: IGF-1-stimulated receptor phosphorylation ELISA, 3T3-IGF1R; type: cell-based
T1 construct: expressed in transfected cells; host or cells: NIH3T3 mouse fibroblasts, retroviral vector (3T3-IGF1R)
From the text: Cells and Cell Culture. All tumor cell lines were obtained from the American Type Culture Collection (Rockville, Md.), unless otherwise specified. NIH3T3 mouse fibroblasts overexpressing the EGF receptor, IGF-1 receptor, insulin receptor, PDGF-b receptor, or a chimera of the EGF receptor extracellular domain fused to the Her-2 cytoplasmic domain were engineered using retroviral vectors. These cells will be referred to as 3T3-EGFR, 3T3-IGF1R, 3T3-IR, 3T3-PDGF-bR, and 3T3-EGFR/Her-2, respectively. All cell culture media and supplements were purchased from Gibco Life Technologies (Grand Island, N.Y.) unless otherwise specified. […] Cell lines were maintained under standard conditions in culture media recommended by the ATCC, unless otherwise specified. 3T3-EGFR, 3T3-PDGF-bR, and 3T3-EGFR/Her-2 cells were maintained in DMEM containing 10% calf serum (CS) and 2 mM GLN. 3T3-IGF1R and 3T3-IR cells were maintained in DMEM containing 10% FBS and 2 mM GLN. Keratinocytes were obtained from small biopsy specimens of split-thicknessskin from patients with psoriasis and from healthy control donors.
In vitro functional studies. […] Cell lines examined in receptor phosphorylation ELISA were 3T3-EGFR, 3T3-EGFR/Her-2, 3T3-PDGF-bR, 3T3-IGF1R, and 3T3-IR. For analysis of DNA replication (measured as incorporation of BrdU) and cell cycle progression, 3T3-EGFR and 3T3-PDGF-bR cell lines were used. Cell growth studies were carried out on A431 (EGF-R+), BT474 (Her-2+), and C6 (PDGF-bR+) cell lines.
Receptor phosphorylation was measured by ELISA. EGF-R/Her-2 denotes a chimeric receptor consisting of the extracellular (ligand-binding) domain of EGFR, and the transmembrane and cytoplasmic domains of Her-2.

[1] = Solubility of A1 in pure solvents

T1 sequence (P08069 741-1367 limits assumed, species assumed): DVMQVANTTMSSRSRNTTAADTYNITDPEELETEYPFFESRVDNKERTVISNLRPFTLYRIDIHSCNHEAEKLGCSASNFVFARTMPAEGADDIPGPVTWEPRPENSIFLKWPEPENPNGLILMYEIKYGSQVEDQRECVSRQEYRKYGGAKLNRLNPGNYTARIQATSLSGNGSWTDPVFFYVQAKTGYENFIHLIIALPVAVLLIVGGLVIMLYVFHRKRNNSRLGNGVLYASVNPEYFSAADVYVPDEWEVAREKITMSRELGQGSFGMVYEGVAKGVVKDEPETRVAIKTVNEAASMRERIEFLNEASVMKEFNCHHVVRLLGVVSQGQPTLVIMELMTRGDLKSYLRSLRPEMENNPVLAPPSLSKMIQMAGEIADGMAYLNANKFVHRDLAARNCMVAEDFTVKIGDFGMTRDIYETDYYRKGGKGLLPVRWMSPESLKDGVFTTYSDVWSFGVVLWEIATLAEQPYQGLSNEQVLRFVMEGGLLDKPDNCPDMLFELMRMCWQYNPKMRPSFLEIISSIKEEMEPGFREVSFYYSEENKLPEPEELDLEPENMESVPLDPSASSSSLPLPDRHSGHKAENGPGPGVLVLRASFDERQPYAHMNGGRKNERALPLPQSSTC
T1 sequence (P08069 31-736 partner limits assumed, species assumed): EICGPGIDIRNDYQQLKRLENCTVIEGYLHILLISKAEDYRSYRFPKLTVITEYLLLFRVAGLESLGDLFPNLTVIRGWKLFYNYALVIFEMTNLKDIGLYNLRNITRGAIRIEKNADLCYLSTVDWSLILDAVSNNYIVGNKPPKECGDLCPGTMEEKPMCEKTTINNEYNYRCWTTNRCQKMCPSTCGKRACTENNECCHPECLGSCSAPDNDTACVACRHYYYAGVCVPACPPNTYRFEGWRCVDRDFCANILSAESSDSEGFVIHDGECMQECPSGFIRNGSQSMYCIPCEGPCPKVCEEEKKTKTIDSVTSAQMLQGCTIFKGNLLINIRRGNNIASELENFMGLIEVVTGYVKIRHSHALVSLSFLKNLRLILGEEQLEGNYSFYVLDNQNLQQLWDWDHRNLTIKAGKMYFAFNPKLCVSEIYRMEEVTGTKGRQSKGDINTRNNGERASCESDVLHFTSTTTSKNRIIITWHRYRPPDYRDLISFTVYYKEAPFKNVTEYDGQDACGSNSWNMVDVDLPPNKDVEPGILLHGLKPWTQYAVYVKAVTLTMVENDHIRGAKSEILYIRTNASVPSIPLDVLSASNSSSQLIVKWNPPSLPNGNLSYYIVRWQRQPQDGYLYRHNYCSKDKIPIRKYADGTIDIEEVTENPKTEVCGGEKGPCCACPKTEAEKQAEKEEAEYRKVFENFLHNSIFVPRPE

COc1cc2ncnc(Nc3cccc(Br)c3)c2cc1OC [A1, 4-(3-Bromophenylamino)-6,7-dimethoxyquinazoline]
activity against insulin-like growth factor-1 receptor (in words) (IGF-1R): little or no activity
inhibition of receptor phosphorylation, IGF-1R (IGF-1R; concentrations up to 100 μM): not inhibited
IC50 (IGF-1R; ligand IGF-1, 2 hr pretreatment): > 100 µM
Not Soluble at ([1]; Benzyl Alcohol, NF): 4.77 % w/w
Soluble at ([1]; Benzyl Alcohol, NF): 3.60 % w/w
Not Soluble at ([1]; Benzyl Benzoate, USP (printed Betizyl Berizoate)): 0.85 % w/w
Not Soluble at ([1]; Caprylic/Capric Triglyceride (Miglyol 812)): 0.84 % w/w
Not Soluble at ([1]; Dehydrated Alcohol, USP): 0.98 % w/w
Soluble at ([1]; Dehydrated Alcohol, USP): 0.76 % w/w
compatibility / solubility ([1]; Diethyl Sebacate): not compatible (yellow)
Not Soluble at ([1]; Diisopropyl Adipate): 0.66 % w/w
Not Soluble at ([1]; Dimethyl isosorbide): 0.97 % w/w
Not Soluble at ([1]; Ethoxydiglycol (Transcutol)): 3.74 % w/w
Soluble at ([1]; Ethoxydiglycol (Transcutol)): 2.41 % w/w
Not Soluble at ([1]; Finsolve TN (Finetex)): 1.27 % w/w
Not Soluble at ([1]; Hexylene Glycol): 2.05 % w/w
Soluble at ([1]; Hexylene Glycol): 0.98 % w/w
Not Soluble at ([1]; Isopropyl Alcohol, 99%): 1.25 % w/w
Not Soluble at ([1]; Isotearyl Alcohol): 0.99 % w/w
Soluble at ([1]; Laureth 4): 4.10 % w/w
Not Soluble at ([1]; Octyldodecanol, NF): 0.68 % w/w
Not Soluble at ([1]; Oleic Acid, NF): 1.00 % w/w
Not Soluble at ([1]; Polyethylene Glycol 300, USP): 2.10 % w/w
Soluble at ([1]; Polyethylene Glycol 300, USP): 1.00 % w/w
Not Soluble at ([1]; Polyethylene Glycol 400, USP): 2.44 % w/w
Soluble at ([1]; Polyethylene Glycol 400, USP): 1.76 % w/w
Not Soluble at ([1]; Polysorbate 20, NF): 0.99 % w/w
Not Soluble at ([1]; Propylene Carbonate, NF): 1.46 % w/w
Soluble at ([1]; Propylene Carbonate, NF): 0.98 % w/w
Not Soluble at ([1]; Propylene Glycol, USP): 0.59 % w/w
Not Soluble at ([1]; Triacetin USP): 0.96 % w/w
solubility in nonirritant solvents (in words) ([1]; among anticancer compounds): relative high solubility in nonirritant solvents
